The record followed here is PMC8037142, “Design, Synthesis, Molecular Modeling and Antitumor Evaluation of Novel Indolyl-Pyrimidine Derivatives with EGFR Inhibitory Activity” (Molecules, 2021).

Where two headings read alike, the source gives them in different places.

Data set [1] has as its system MCF-7 breast cancer cell line. The experiment in a line: Resazurin Cell Growth Inhibition Assay, MCF-7. It counts as cell-based. The note with it: Homo sapiens, MCF7; MCF-7, 48 h, mean ± SD of three experiments; read-out: Cytotoxic Activity IC50. Here is the method:
(§1) Compounds 1–4 were assessed for their in vitro cytotoxic activity against three human cell lines i.e., breast (MCF-7), liver (HepG2), colon (HCT-116) cancer cell lines as well as in lung fibroblast (WI38) normal cell line using the Resazurin Cell Growth Inhibition Assay. Both erlotinib and 5-Fluorouracil (5-FU) were used as reference drugs. Concentrations of the tested compounds that give about 50% inhibition of cell viability (IC50, mean of triplicate) in µM were obtained. […] However, if replaced by a hydrazone substituent, a more prominent efficacy toward the three cancer cell lines was observed. […] The most promising in vitro antiproliferative activity was obtained when the hydrazone is bearing electron-withdrawal groups i.e., 4-chlorobenzylidene moiety (compound 3f), 3,4-dichloro benzylidene moiety (compound 3g) and 4-fluorobenzylidene moiety (compound 3h) compared to the standard treatment (Table 1, Figure 5). The inhibitory activity of compounds was reduced when the hydrazone group is bearing electron donating groups i.e., 4-methyl group (compound 3b), 2-methoxy group (compound 3c), 4-hydroxy (compound 3d) and 4-dimethylamino group (compound 3e). The trend of antiproliferative activity of compounds […] against all tested cell lines has the following descending order: (3g > 3h >3f >3a >3b > 3c > 3d > 3e). […]. […] This is mainly because this compound has the highest lipophilicity as well as less electron density as it has 2-Cl atoms (more electronegativity) on the indolyl pyrimidine-thiazolidinone.
(§2) In vitro cytotoxicity was measured according to the Resazurin Cell Growth Inhibition Assay Alamar Blue or Resazurin (Promega, Mannheim, Germany) reduction assay was used to assess the cytotoxicity of the studied samples. The assay tests cellular viability and mitochondrial function. Briefly, adherent cells were grown in tissue culture flasks, and then harvested by treating the flasks with 0.025% trypsin and 0.25 mM EDTA for 5 min. Once detached, cells were washed, counted, and an aliquot (5 × 10^3 cells) were placed in each well of a 96-well cell culture plate in a total volume of […]. Cells were allowed to attach overnight and then treated with samples. […]. Each assay was performed as triplicates. […] […]. The viability was compared based on a comparison with untreated cells. IC50 (on cancer cells) were the concentration of sample required to inhibit 50% of the cell proliferation and were calculated from a calibration curve by a linear regression using Microsoft Excel.

In data set [2] the test system is HCT-116 colon cancer cell line. Briefly: Resazurin Cell Growth Inhibition Assay, HCT-116. It is filed as cell-based, human. The note with it: HCT-116, 48 h, mean ± SD of three experiments, read-out: Cytotoxic Activity IC50. Here is the method:
as §1, §2
On the technique in general: The colour change of resazurin is a common sign of viable cells or microbes.

The subject of data set [3] is HepG2 liver cancer cell line. Briefly: Resazurin Cell Growth Inhibition Assay, HepG2. It is filed as cell-based, human. The note with it: HepG2, 48 h, mean ± SD of three experiments, read-out: Cytotoxic Activity IC50. Here is the method:
as §1, §2

Data set [4] is described as follows: Resazurin Cell Growth Inhibition Assay, WI38 normal cells. It counts as cell-based. The note with it: human, WI38 normal lung fibroblast cells, WI-38 normal cells, mean ± SD of three experiments, read-out: Cytotoxic Activity IC50. The method, then: as §1, §2
Data set [5] has as its system MCF-7, HepG2 and HCT-116 cancer cell lines. Briefly: Resazurin assay, range over the three cancer cell lines. It counts as cell-based. The note with it: Homo sapiens; range over MCF-7, HepG2 and HCT-116; read-out: IC50 range against the cancer cell lines. The method, then: Compounds 1–4 were assessed for their in vitro cytotoxic activity against three human cell lines i.e., breast (MCF-7), liver (HepG2), colon (HCT-116) cancer cell lines as well as in lung fibroblast (WI38) normal cell line using the Resazurin Cell Growth Inhibition Assay. Both erlotinib and 5-Fluorouracil (5-FU) were used as reference drugs. Concentrations of the tested compounds that give about 50% inhibition of cell viability (IC50, mean of triplicate) in µM were obtained. […] However, if replaced by a hydrazone substituent, a more prominent efficacy toward the three cancer cell lines was observed. […] The most promising in vitro antiproliferative activity was obtained when the hydrazone is bearing electron-withdrawal groups i.e., 4-chlorobenzylidene moiety (compound 3f), 3,4-dichloro benzylidene moiety (compound 3g) and 4-fluorobenzylidene moiety (compound 3h) compared to the standard treatment (Table 1, Figure 5). […]
In vitro cytotoxicity was measured according to the Resazurin Cell Growth Inhibition Assay Alamar Blue or Resazurin (Promega, Mannheim, Germany) reduction assay was used to assess the cytotoxicity of the studied samples. […] Once detached, cells were washed, counted, and an aliquot (5 × 10^3 cells) were placed in each well of a 96-well cell culture plate in a total volume of 100 mL. […]

Data set [6] has as its system Ehrlich ascites carcinoma (EAC). Briefly: In vivo antitumor assay in EAC tumor bearing mice. The note with it: 0.5 mg/mouse for nine days; for Tumor Volume: ascitic fluid; for MST (mean survival time): mean of two experiments; for Viable Tumor Cell Count: trypan blue. The method, then:
The antitumor activity of these compounds was assessed by the change in tumor volume, viable cell count, mean survival time (MST) and % increase in lifespan (% ILS) of the EAC tumor bearing mice and 5-FU (standard treatment). The mean survival time (MST) and % increase in lifespan (% ILS) of EAC tumor bearing mice, as well as the influence of these compounds on viable tumor cells and the tumor volume, are shown in Table 2. The hematological profile of these mice was also assessed in comparison with the standard treatment with 5-FU, and no obvious effect on RBCs or WBCs was observed. […] MST = (day of first death + day of last death)/2 %ILS = [(MST of treated group/MST of control group) − 1] × 100 […]
In vivo antitumor evaluation was carried out as previously reported (see Supplementary Materials).
2. Biological Evaluation Details: a) In vivo antitumor assay: Materials . Adult Swiss male mice (weighing 20 -25 g) were obtained from the Department of Pharmacology, Faculty of Pharmacy, Mansoura University, Egypt.
They were kept in microlon boxes at temperature 25 ± 2 °C with a regular 12 hrs light/dark cycle. In addition, food and water were available. EAC cells (procured from NCI, Cairo, Egypt) were harvested and prepared, then their total number was counted.
Procedure. 7 Groups of mice ( n = 4) were used.
Group 1: Negative control (no EAC cells) - received normal saline.
Group 2: Positive control (EAC cells) - received normal saline.
Group 3: EAC cells - treated with compound 3g (0.5 mg/mouse).
Group 4: EAC cells - treated with compound 4f (0.5 mg/mouse).
Group 5: EAC cells - treated with compound 4g (0.5 mg/mouse).
Group 6: EAC cells - treated with compound 4h (0.5 mg/mouse).
Group 7: EAC cells - treated with 5-fluorouracil (0.5 mg/mouse).
2 x 10^6 EAC cells were injected intraperitoneally in each mouse (groups 2-7). After […]
for nine days, then blood samples were withdrawn for assessment of blood count.
Determination of tumor volume
The ascetic fluid was gathered from the peritoneal cavity and its volume was determined. It was then centrifuged, and the packed tumor cell volume was measured.
Determination of viable tumor cell count
100 μL Sample of EAC cells (from three mice per group) was utilized and diluted twenty times with saline. Cells were stained with trypan blue, viable cells are not stained, while the dead ones are stained. The number of viable cells was calculated.

The target in a further data set is EGFR kinase (Homo sapiens, UniProt P00533). Briefly: In vitro EGFR inhibitory assay (EnzyChrom Kinase Assay Kit EKIN-400). The note with it: for inhibition at 10 µM: read-out: % Inhibition of EGFR.
Chain of EGFR kinase (P00533 25-1210): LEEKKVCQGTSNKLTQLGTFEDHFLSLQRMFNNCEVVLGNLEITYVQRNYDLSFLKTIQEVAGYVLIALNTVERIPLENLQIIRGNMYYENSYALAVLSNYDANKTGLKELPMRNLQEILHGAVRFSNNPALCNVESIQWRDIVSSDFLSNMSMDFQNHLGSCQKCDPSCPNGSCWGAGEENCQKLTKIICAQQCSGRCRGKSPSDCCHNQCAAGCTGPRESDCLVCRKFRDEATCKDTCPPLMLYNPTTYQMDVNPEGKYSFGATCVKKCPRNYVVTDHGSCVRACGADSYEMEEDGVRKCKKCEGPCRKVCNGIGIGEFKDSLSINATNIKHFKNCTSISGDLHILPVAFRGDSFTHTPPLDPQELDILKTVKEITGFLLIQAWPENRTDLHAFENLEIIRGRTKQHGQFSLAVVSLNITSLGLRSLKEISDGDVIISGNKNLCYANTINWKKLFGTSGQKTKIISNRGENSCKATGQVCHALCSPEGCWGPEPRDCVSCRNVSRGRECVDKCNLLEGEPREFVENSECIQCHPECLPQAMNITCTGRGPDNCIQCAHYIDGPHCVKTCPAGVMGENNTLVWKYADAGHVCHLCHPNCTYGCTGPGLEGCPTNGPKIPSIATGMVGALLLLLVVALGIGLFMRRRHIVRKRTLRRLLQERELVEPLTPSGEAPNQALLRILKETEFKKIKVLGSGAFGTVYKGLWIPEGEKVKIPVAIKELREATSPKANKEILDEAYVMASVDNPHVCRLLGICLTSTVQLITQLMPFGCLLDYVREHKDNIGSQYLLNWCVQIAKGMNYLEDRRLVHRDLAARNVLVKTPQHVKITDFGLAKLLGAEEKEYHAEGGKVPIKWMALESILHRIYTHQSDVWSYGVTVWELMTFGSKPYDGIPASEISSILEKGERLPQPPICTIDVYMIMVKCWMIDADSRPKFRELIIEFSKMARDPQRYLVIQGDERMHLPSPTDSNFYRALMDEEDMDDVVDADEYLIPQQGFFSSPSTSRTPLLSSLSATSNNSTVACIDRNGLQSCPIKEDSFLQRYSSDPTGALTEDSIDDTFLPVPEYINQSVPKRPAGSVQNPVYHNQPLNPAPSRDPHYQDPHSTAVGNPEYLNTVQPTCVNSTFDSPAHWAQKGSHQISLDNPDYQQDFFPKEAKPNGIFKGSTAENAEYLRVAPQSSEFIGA

Experimental for EGFR kinase: A first-generation EGFR inhibitor, erlotinib, was used as standard treatment. […] IC50 for these compounds was determined. […] In addition, 20 µL reaction mixture containing the EGFR kinase, ATP, and substrate in the provided assay buffer. Set up a blank control that contains ATP and substrate but no enzyme. Incubate at desired temperature for 30 min. Prepare 900 µL 10µM (adenosine diphosphate) ADP premix by mixing 3 µL of 3 mM standard and 897 µL distilled water. Transfer 20 µL standards into separate wells of the plate. Prepare enough working reagent for each well. Add 40 µL working reagent to each assay well. Tap plate to mix. Incubate at room temperature for 10 min. Read fluorescence intensity at λexc = 530nm and λem = 590 nm, and then calculate kinase activity.

For the molecule `CCOC(=O)C1=C(C)NC(=S)NC1c1c[nH]c2ccccc12` (stereo not shown) [Compound 1, Ethyl 4-(1H-indol-3-yl)-6-methyl-2-thioxo-1,2,3,4-tetrahydropyrimidine-5-Carboxylate], the melting point (commonly the temperature of the solid-liquid transition) lay within 245 to 247 °C. In addition, in data set [1], the IC50 (in general, the concentration that inhibits the measured activity by half) came to 26.8 ± 2.2 µM. Besides, the IC50 in data set [2] (Homo sapiens) is 27.2 ± 1.11 µM. The IC50 in data set [3] (Homo sapiens) was 28.8 ± 2.25 µM. In data set [4], the IC50 at 48 h stood at 30 ± 1.2 µM. The IC50 in data set [5] was in the range of 26.8 to 28.2 µM.
As to `CC1=C(C(=O)NN2C(=O)CSC2c2ccc(Cl)c(Cl)c2)C(c2c[nH]c3ccccc23)NC(=S)N1` (stereo not shown) [Compound 4g, N-(2-(3,4-dichlorophenyl)-4-oxothiazolidin-3-yl)-4-(1H-indol-3-yl)-6-methyl-2-thioxo-1,2,3,4-tetrahydropyrimidine-5-carboxamide], the IC50 is 5.1 ± 1.14 µM in data set [1]; 5.02 ± 1.19 µM in data set [2]; 6.6 µM in data set [2] (Homo sapiens); 6.6 ± 1.4 µM in data set [3]; 5.02 µM in data set [3] (Homo sapiens). The half-maximal inhibitory concentration (IC50) at 48 h in data set [4] was 16.3 ± 3.21 µM. The “Tumor Volume” value in data set [6] was 0.89 mL. In addition, the “MST (mean survival time)” value in data set [6] is 46 days. Also, the “Viable Tumor Cell Count” value in data set [6] is 21.70 10^6/mL. In addition, at EGFR kinase, the inhibition (as a rule, the share of the control response that was lost under treatment) at 10 µM turned out to be 79%.
`CC1=C(C(=O)NN2C(=O)CSC2c2ccc(Cl)cc2)C(c2c[nH]c3ccccc23)NC(=S)N1` (stereo not shown) [Compound 4f, N-(2-(4-chlorophenyl)-4-oxothiazolidin-3-yl)-4-(1H-indol-3-yl)-6-methyl-2-thioxo-1,2,3,4-tetrahydropyrimidine-5-carboxamide]: the IC50 in data set [1] was found to be 8.01 ± 1.83 µM; in data set [2] (Homo sapiens), 8.02 ± 0.26 µM; in data set [3] (Homo sapiens), 8.9 ± 1.73 µM; at EGFR kinase it was 0.38 ± 0.02 µM. The IC50 at 48 h in data set [4] stood at 19.3 ± 5.87 µM. For the same molecule, the “Tumor Volume” value in data set [6] was determined as 2.50 mL. For the same molecule, in data set [6], the “MST (mean survival time)” value came to 37 days. Besides, the “Viable Tumor Cell Count” value in data set [6] is recorded as 40.70 10^6/mL. The inhibition at 10 µM at EGFR kinase amounted to 71%.
`CC1=C(C(=O)NN)C(c2c[nH]c3ccccc23)NC(=S)N1` (stereo not shown) [Compound 2, 4-(1H-indol-3-yl)-6-methyl-2-thioxo-1,2,3,4-tetrahydropyrimidine-5-carbohydrazide] displayed a melting point of 208 to 210 °C. The IC50 in data set [1] is 21.6 ± 1.8 µM. Further, in data set [2] (Homo sapiens), the IC50 amounted to 22.2 ± 1.5 µM. The IC50 in data set [3] (Homo sapiens) worked out at 25.5 ± 2.17 µM. Also, in data set [4], the IC50 at 48 h worked out at 40.5 ± 2.25 µM. The IC50 in data set [5] was 21.6 to 25.5 µM.
With `CC1=C(C(=O)NN=Cc2ccc(Cl)c(Cl)c2)C(c2c[nH]c3ccccc23)NC(=S)N1` (stereo not shown) [Compound 3g, 4-(1H-indol-3-yl)-6-methyl-2-thioxo-1,2,3,4-tetrahydropyrimidine-5-carboxylic acid (3,4-dichloro-benzylidene)-hydrazide], the IC50 in data set [1] was found to be 9 ± 2.4 µM; in data set [2] (Homo sapiens) it was 8.5 ± 2.3 µM; in data set [3] (Homo sapiens), 10 ± 2.46 µM; against EGFR kinase, 0.5 ± 0.04 µM. For the same molecule, the IC50 at 48 h in data set [4] was found to be 30 ± 3.72 µM. The “Tumor Volume” value in data set [6] stood at 2.97 mL. Also, in data set [6], the “MST (mean survival time)” value is 30 days. The “Viable Tumor Cell Count” value in data set [6] is listed as 48.00 10^6/mL. Also, the inhibition at 10 µM on EGFR kinase is 53%.
For the molecule `CC1=C(C(=O)NN2C(=O)CSC2c2ccc(F)cc2)C(c2c[nH]c3ccccc23)NC(=S)N1` (stereo not shown) [Compound 4h, N-(2-(4-fluorophenyl)-4-oxothiazolidin-3-yl)-4-(1H-indol-3-yl)-6-methyl-2-thioxo-1,2,3,4-tetrahydropyrimidine-5-carboxamide], the IC50 in data set [1] stood at 6.6 ± 1.28 µM. Moreover, the half-inhibitory concentration (IC50) in data set [2] (Homo sapiens) turned out to be 7.02 ± 0.46 µM. Besides, the IC50 in data set [3] (Homo sapiens) is 7.5 ± 1.29 µM. In addition, in data set [4], the IC50 at 48 h is 18.1 ± 2.06 µM. In data set [6], the “Tumor Volume” value is recorded as 1.18 mL, the “MST (mean survival time)” value was 40 days and the “Viable Tumor Cell Count” value is on record as 28.50 10^6/mL. On EGFR kinase, the IC50 came out at 0.39 ± 0.02 µM and the inhibition at 10 µM was 70%.
